Data as given in patent publication US20160115539A1, “USE OF A SLC MAMMALIAN SKIN TRANSPORTER” (GALDERMA RESEARCH & DEVELOPMENT, priority 2013, published 2016).

Tests used:
Format in all cases: cell-based
SLC47A1 (MATE1) [1] = assay: Effect of Rifampicin on SLC47A1 mRNA expression in human hepatocytes in primary culture (real time PCR); details: Rifampicin 20 μM, 72 hours
Description: (§1) After homogenization of skin samples or hepatocytes in lysis buffer (Promega), total RNA was isolated using SV Total RNA Isolation System (Promega), in accordance with the instructions provided by the constructor. RNA concentrations were quantified spectrophotometrically. Quantification of mRNA expression of human SLC transporters was performed using TaqMan PCR techniques (Applied Biosystems). Experiments were carried out on a 7500 real time PCR System (Applied Biosystems) using Assay-on-Demand gene expression products. For this, 500 ng of total RNA were reverse-transcribed using the High Capacity RNA to cDNA Master Mix kit (Applied Biosystems).

SLC47A1 (MATE1) [2] = assay: Effect of Rifampicin on SLC47A1 mRNA expression in human skin organoculture (real time PCR); details: Rifampicin 20 μM, 72 hours, p≦0.05
Description: (§2) Fresh human skin samples from 3 different donors were used and maintained in organoculture. Four skin biopsies of 6 mm diameter were used per well of 6-well plate, filled with long term skin culture medium (Biopredic, France) (FIG. 1). Skin samples were treated with 20 μM Rifampicin during 3 days. In a separate experiment, skin samples were exposed during one hour every day during 3 days to UV lights via a solar simulator (UVA 110 W/m^2; UVB 20 W/m^2). Untreated skin samples were used as control. The culture plates were kept in a cell culture incubator set at 37° C., 5% CO2 and saturated hygrometry. At the end of treatment period gene expression of SLC transporters was measured as described above.
as §1

SLC47A2 (MATE2) = assay: Effect of Rifampicin on SLC47A2 mRNA expression in human skin organoculture (real time PCR); details: Rifampicin 20 μM, 72 hours
Description: as §2, §1

SMILES: CO[C@H]1/C=C/O[C@@]2(C)Oc3c(C)c(O)c4c(O)c(c(/C=N/N5CCN(C)CC5)c(O)c4c3C2=O)NC(=O)/C(C)=C\C=C\[C@H](C)[C@H](O)[C@@H](C)[C@@H](O)[C@@H](C)[C@H](OC(C)=O)[C@@H]1C [Rifampicin]
- decrease in expression of SLC47A1 (MATE1) (SLC47A1 (MATE1) [1]): 48%
- decrease in MATE1 expression (SLC47A1 (MATE1) [2]): 44%
- decrease in MATE2 expression (SLC47A2 (MATE2)): 30%
